Test results from patent publication US11161825B2, “4-oxo-2,3,4,5-tetrahydro-1H-1,5-benzodiazepine-7-carboxamides” (Bayer Aktiengesellschaft, priority 2017, dated 2021).
pIC50: −log10 of the molar value.

Legend:
SMYD3 = target: T1, SMYD3 (Homo sapiens, UniProt Q9H7B4); experiment: SMYD3 Scintillation Proximity Assay (SPA), methylation of MAP3K2 Peptide; assay type: biochemical; settings: SMYD3 full length enzyme 10 nM, 3H-SAM 125 nM, MAP3K2 Peptide 1 μM, 120 min at 22° C.
T1 construct: The SMYD3 full length enzyme was produced in-house by expression (with an N-terminal 6×His tag) in E. coli; 6xHis (N); made in house; host or cells: E. coli
T1 sequence (Q9H7B4 1-428): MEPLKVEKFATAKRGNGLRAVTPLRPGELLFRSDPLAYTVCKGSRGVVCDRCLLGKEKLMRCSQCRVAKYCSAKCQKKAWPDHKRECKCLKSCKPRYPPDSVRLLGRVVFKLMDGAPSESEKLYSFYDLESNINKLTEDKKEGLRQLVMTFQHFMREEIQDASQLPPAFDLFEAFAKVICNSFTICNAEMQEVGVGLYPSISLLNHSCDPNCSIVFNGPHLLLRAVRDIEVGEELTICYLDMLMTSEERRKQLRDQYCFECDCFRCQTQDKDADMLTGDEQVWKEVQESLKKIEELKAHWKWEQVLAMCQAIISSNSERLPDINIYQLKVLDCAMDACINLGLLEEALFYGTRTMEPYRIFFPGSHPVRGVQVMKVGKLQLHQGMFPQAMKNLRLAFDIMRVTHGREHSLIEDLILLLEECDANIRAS
Protocol: SMYD3 Scintillation Proximity Assay (SPA)
The SMYD3 full length enzyme was produced in-house by expression (with an N-terminal 6×His tag) in E. coli and purification by affinity chromatography on a Ni-NTA Sepharose column followed by a size exclusion chromatography step on a Superdex 200 16/60 column (GE Healthcare).
To this end, 100-fold concentrated compound solutions (in DMSO) were previously prepared by serial dilution (1:3.4) of 2 mM stocks in a clear low volume 384-well source microtiter plate (Greiner Bio-One), from which 100 nl of compounds were transferred into a white low volume test microtiter plate from the same supplier. […] The resulting mixture (5 μl final volume) was shortly centrifuged (2 min., 1500 rpm) and incubated at 22° C. during 120 min. […] Plates containing the stopped reaction were sealed with transparent adhesive foil (Perkin Elmer), centrifuged (2 min., 1500 rpm), and further incubated overnight at 4° C. in order to allow the SPA signals to develop. Subsequently, the amount of product was evaluated by measuring the energy transfer from the […] emitted by the 3H-labeled substrate to the scintillator co-polymerized in the bead's matrix, using a TopCount NXT scintillation counter (Packard) with the standard instrument settings for this purpose. The resulting scintillation counts were taken as indicator for the amount of methylated peptide per well. […] IC50 values were calculated by fitting the normalized inhibition data to a 4-parameter logistic equation using the XLFit analysis software (IDBS).

[1] = target: T2, untagged full length SMYD3 (Homo sapiens, UniProt Q9H7B4); experiment: Thermal Shift Assay; assay type: binding; settings: protein 1.5-2.0 μM, 5× SYPRO Orange, scans 25° C. to 80° C.; control 4% DMSO
T2 construct: As protein untagged full length SMYD3 was used
T2 sequence (Q9H7B4 1-428): T1 sequence (Q9H7B4 1-428)
Protocol: Thermal Shift Assay Thermal melting experiments were performed with a ViiA™ Real-Time PCR machine (Thermo Fisher Scientific) in 384-well microliter plate with a final volume of 5 μL. Melting curves were obtained at a protein concentration of 1.5-2.0 μM and 5× SYPRO Orange (Invitrogen) using buffer containing 20 mM Tris pH7.0; 150 mM NaCl; 1.0 mM DTT. As protein untagged full length SMYD3 was used. […] As control 4% DMSO was used. Scans were measured from 25° C. to 80° C. at a scanning rate of 0.1° C./sec. All TSA data were analyzed by using Genedata Assay Analyzer.

Compound	pIC50 (SMYD3)	Thermal shift assay (° C.) [1]
Cc1nocc1C(=O)N1c2ccc(C(=O)NCCC3CCC3)cc2NC(=O)C(C)C1C (single isomer, unassigned) [Example 13, N-(2-cyclobutylethyl)-2,3-dimethyl-1-[(3-methyl-1,2-oxazol-4-yl)carbonyl]-4-oxo-2,3,4,5-tetrahydro-1H-1,5-benzodiazepine-7-carboxamide]	5.34	3.71 °C
Cc1nocc1C(=O)N1c2ccc(C(=O)NCCC3CCC3)cc2NC(=O)C(C)C1C (single isomer, unassigned) [Example 14, N-(2-cyclobutylethyl)-2,3-dimethyl-1-[(3-methyl-1,2-oxazol-4-yl)carbonyl]-4-oxo-2,3,4,5-tetrahydro-1H-1,5-benzodiazepine-7-carboxamide]	< 4.70	1.15 °C
Cc1nocc1C(=O)N1c2ccc(C(=O)NCCC3CCC3)cc2NC(=O)C(C)C1C (single isomer, unassigned) [Example 15, N-(2-cyclobutylethyl)-2,3-dimethyl-1-[(3-methyl-1,2-oxazol-4-yl)carbonyl]-4-oxo-2,3,4,5-tetrahydro-1H-1,5-benzodiazepine-7-carboxamide]	≤ 4.70	1.27 °C
Cc1nocc1C(=O)N1c2ccc(C(=O)NCCC3CCC3)cc2NC(=O)C(C)C1C (single isomer, unassigned) [Example 16, N-(2-cyclobutylethyl)-2,3-dimethyl-1-[(3-methyl-1,2-oxazol-4-yl)carbonyl]-4-oxo-2,3,4,5-tetrahydro-1H-1,5-benzodiazepine-7-carboxamide]	5.47	3.51 °C
C[C@H]1CC(=O)Nc2cc(C(=O)NCCC3CC3)ccc2N1C(=O)N1CCC(F)(F)C1 [Example 24, (2S)—N-(2-cyclopropylethyl)-1-[(3,3-difluoropyrrolidin-1-yl)carbonyl]-2-methyl-4-oxo-2,3,4,5-tetrahydro-1H-1,5-benzodiazepine-7-carboxamide]	6.15	7.35 °C
C[C@H]1CC(=O)Nc2cc(C(=O)NCCC3CC3)ccc2N1C(=O)N1CCC(F)(F)CC1 [Example 25, (2S)—N-(2-cyclopropylethyl)-1-[(4,4-difluoropiperidin-1-yl)carbonyl]-2-methyl-4-oxo-2,3,4,5-tetrahydro-1H-1,5-benzodiazepine-7-carboxamide]	5.64	6.12 °C
C[C@H]1CC(=O)Nc2cc(C(=O)NCCC3CC3)ccc2N1C(=O)N1CCN(CCO)CC1 [Example 26, (2S)—N-(2-cyclopropylethyl)-1-{[4-(2-hydroxyethyl)piperazin-1-yl]carbonyl}-2-methyl-4-oxo-2,3,4,5-tetrahydro-1H-1,5-benzodiazepine-7-carboxamide]	5.90	6.08 °C
CCN1CCN(C(=O)N2c3ccc(C(=O)NCCC4CC4)cc3NC(=O)C[C@@H]2C)CC1 [Example 27, (2S)—N-(2-cyclopropylethyl)-1-[(4-ethylpiperazin-1-yl)carbonyl]-2-methyl-4-oxo-2,3,4,5-tetrahydro-1H-1,5-benzodiazepine-7-carboxamide]	6.28	8.77 °C
C[C@H]1CC(=O)Nc2cc(C(=O)NCCC3CC3)ccc2N1C(=O)N1CCC(NCC(F)(F)F)CC1 [Example 29, (2S)—N-(2-cyclopropylethyl)-2-methyl-4-oxo-1-({4-[(2,2,2-trifluoroethyl)amino]piperidin-1-yl}carbonyl)-2,3,4,5-tetrahydro-1H-1,5-benzodiazepine-7-carboxamide]	6.17	5.51 °C
C[C@H]1CC(=O)Nc2cc(C(=O)NCCC3CC3)ccc2N1C(=O)N1CCN(CC(F)(F)F)CC1 [Example 30, (2S)—N-(2-cyclopropylethyl)-2-methyl-4-oxo-1-{[4-(2,2,2-trifluoroethyl)piperazin-1-yl]carbonyl}-2,3,4,5-tetrahydro-1H-1,5-benzodiazepine-7-carboxamide]	6.10	5.69 °C
C[C@H]1CC(=O)Nc2cc(C(=O)NCCC3CC3)ccc2N1C(=O)N(C)C1CCN(CC(F)(F)F)CC1 [Example 31, (2S)—N^7-(2-cyclopropylethyl)-N^1,2-dimethyl-4-oxo-N^1-[1-(2,2,2-trifluoroethyl)piperidin-4-yl]-2,3,4,5-tetrahydro-1H-1,5-benzodiazepine-1,7-dicarboxamide]	5.60	2.79 °C
C[C@H]1CC(=O)Nc2cc(C(=O)NCCC3CC3)ccc2N1C(=O)N1CC[C@@H](N)C1.Cl [Example 39, (2S)-1-{[(3R)-3-aminopyrrolidin-1-yl]carbonyl}-N-(2-cyclopropylethyl)-2-methyl-4-oxo-2,3,4,5-tetrahydro-1H-1,5-benzodiazepine-7-carboxamide hydrochloride (1:1)]	6.23	7.25 °C
C[C@H]1CC(=O)Nc2cc(C(=O)NCCC3CC3)ccc2N1C(=O)N1CCNCC1 [Example 41, (2S)—N-(2-cyclopropylethyl)-2-methyl-4-oxo-1-(piperazin-1-ylcarbonyl)-2,3,4,5-tetrahydro-1H-1,5-benzodiazepine-7-carboxamide]	6.58	7.22 °C

The next compounds have a higher pIC50 (SMYD3) than those just listed; values first:

pIC50 (SMYD3)	Thermal shift assay (° C.) [1]	Compound
7.27	9.35 °C	CC1C(=O)Nc2cc(C(=O)NCCC3CCC3)ccc2N(C(=O)N2CCC(N)CC2)C1C (single isomer, unassigned) [Example 21, 1-[(4-aminopiperidin-1-yl)carbonyl]-N-(2-cyclobutylethyl)-2,3-dimethyl-4-oxo-2,3,4,5-tetrahydro-1H-1,5-benzodiazepine-7-carboxamide]
7.65	9.50 °C	CC1C(=O)Nc2cc(C(=O)NCCC3CCC3)ccc2N(C(=O)N2CCC(N)CC2)C1C (single isomer, unassigned) [Example 22, 1-[(4-aminopiperidin-1-yl)carbonyl]-N-(2-cyclobutylethyl)-2,3-dimethyl-4-oxo-2,3,4,5-tetrahydro-1H-1,5-benzodiazepine-7-carboxamide]
7.23	9.88 °C	C[C@H]1CC(=O)Nc2cc(C(=O)NCCC3CC3)ccc2N1C(=O)N1CC2CC2C1 (stereo partly drawn) [Example 23, (2S)-1-(3-azabicyclo[3.1.0]hex-3-ylcarbonyl)-N-(2-cyclopropylethyl)-2-methyl-4-oxo-2,3,4,5-tetrahydro-1H-1,5-benzodiazepine-7-carboxamide]
6.89	9.94 °C	CCN1CCC(N(C)C(=O)N2c3ccc(C(=O)NCCC4CC4)cc3NC(=O)C[C@@H]2C)CC1 [Example 28, (2S)—N^7-(2-cyclopropylethyl)-N^1-(1-ethylpiperidin-4-yl)-N^1,2-dimethyl-4-oxo-2,3,4,5-tetrahydro-1H-1,5-benzodiazepine-1,7-dicarboxamide]
7.34	10.17 °C	C[C@H]1CC(=O)Nc2cc(C(=O)NCCC3CC3)ccc2N1C(=O)N1CCCNCC1 [Example 33, (2S)—N-(2-cyclopropylethyl)-1-(1,4-diazepan-1-ylcarbonyl)-2-methyl-4-oxo-2,3,4,5-tetrahydro-1H-1,5-benzodiazepine-7-carboxamide]
6.67	8.66 °C	C[C@H]1CC(=O)Nc2cc(C(=O)NCCC3CC3)ccc2N1C(=O)N1CC[C@H](N)C1.Cl [Example 37, (2S)-1-{[(3S)-3-aminopyrrolidin-1-yl]carbonyl}-N-(2-cyclopropylethyl)-2-methyl-4-oxo-2,3,4,5-tetrahydro-1H-1,5-benzodiazepine-7-carboxamide hydrochloride (1:1)]
